Reference: publication PMC10247784, “Physiological activation of human and mouse bitter taste receptors by bile acids” (Communications Biology, 2023)

Biological target: T1, human TAS2R4 (Homo sapiens, UniProt Q9NYW5)
T1 construct: expressed in transfected cells; host or cells: HEK293T-Gα16gust44
T1 sequence (Q9NYW5 1-299): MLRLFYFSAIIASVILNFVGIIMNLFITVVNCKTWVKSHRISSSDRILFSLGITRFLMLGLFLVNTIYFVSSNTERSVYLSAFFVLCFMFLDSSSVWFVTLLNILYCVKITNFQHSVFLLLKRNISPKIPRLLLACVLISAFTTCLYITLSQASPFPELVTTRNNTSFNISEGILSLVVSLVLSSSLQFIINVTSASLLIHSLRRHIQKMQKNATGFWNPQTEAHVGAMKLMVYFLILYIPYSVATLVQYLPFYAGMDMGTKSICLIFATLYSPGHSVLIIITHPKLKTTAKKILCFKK
Assay: Calcium imaging assay (FLIPR), HEK293T-Gα16gust44 cells transfected with human TAS2R4
Type: cell-based
Outline: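 Fluo-4 calcium responses; ΔF/F corrected for mock transfection and buffer control; triplicate independent dose-response runs; p < 0.01 threshold.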

For C[C@H](CCC(=O)NCC(=O)O)[C@H]1CC[C@H]2[C@@H]3[C@H](O)C[C@@H]4C[C@H](O)CC[C@]4(C)[C@H]3C[C@H](O)[C@]12C [Glycocholic Acid, glycocholic acid], the “RLU, fluorescence trace” value (Time (s) 92.781 (TCA, TLCA: 92.782)) was 713.242 RLU, the “RLU, fluorescence trace” value (Time (s) 94.781 (TCA, TLCA: 94.782)) was 703.281 RLU and the “RLU, fluorescence trace” value (Time (s) 96.781 (TCA, TLCA: 96.782)) was 696.734 RLU. The “RLU, fluorescence trace” value (Time (s) 98.781 (TCA, TLCA: 98.782)) was 653.577 RLU, the “RLU, fluorescence trace” value (Time (s) 100.781 (TCA, TLCA: 100.782)) was 678.663 RLU and the “RLU, fluorescence trace” value (Time (s) 102.781 (TCA, TLCA: 102.782)) was 623.965 RLU. The “RLU, fluorescence trace” value (Time (s) 104.781 (TCA, TLCA: 104.782)) was 624.137 RLU, the “RLU, fluorescence trace” value (Time (s) 106.781 (TCA, TLCA: 106.782)) was 630.047 RLU and the “RLU, fluorescence trace” value (Time (s) 108.781 (TCA, TLCA: 108.782)) was 571.666 RLU. For the same compound, the “RLU, fluorescence trace” value (Time (s) 110.781 (TCA, TLCA: 110.782)) was 598.289 RLU, the “RLU, fluorescence trace” value (Time (s) 112.781 (TCA, TLCA: 112.782)) was 583.918 RLU and the “RLU, fluorescence trace” value (Time (s) 114.781 (TCA, TLCA: 114.782)) was 556.25 RLU. The “RLU, fluorescence trace” value (Time (s) 116.781 (TCA, TLCA: 116.782)) was 588.773 RLU, the “RLU, fluorescence trace” value (Time (s) 118.781 (TCA, TLCA: 118.782)) was 548.501 RLU and the “RLU, fluorescence trace” value (Time (s) 120.781 (TCA, TLCA: 120.782)) was 507.386 RLU. For the same compound, the “RLU, fluorescence trace” value (Time (s) 122.781 (TCA, TLCA: 122.782)) was 507.852 RLU, the “RLU, fluorescence trace” value (Time (s) 124.781 (TCA, TLCA: 124.782)) was 509.201 RLU and the “RLU, fluorescence trace” value (Time (s) 126.781 (TCA, TLCA: 126.782)) was 489.381 RLU. For the same compound, the “RLU, fluorescence trace” value (Time (s) 128.781 (TCA, TLCA: 128.782)) was 446.993 RLU, the “RLU, fluorescence trace” value (Time (s) 130.781 (TCA, TLCA: 130.782)) was 463.894 RLU and the “RLU, fluorescence trace” value (Time (s) 132.781 (TCA, TLCA: 132.782)) was 448.798 RLU. The “RLU, fluorescence trace” value (Time (s) 134.781 (TCA, TLCA: 134.782)) was 427.428 RLU, the “RLU, fluorescence trace” value (Time (s) 136.781 (TCA, TLCA: 136.782)) was 402.196 RLU and the “RLU, fluorescence trace” value (Time (s) 137.547) was 379.772 RLU. The “RLU, fluorescence trace” value (Time (s) 143.547) was 379.834 RLU, the “RLU, fluorescence trace” value (Time (s) 149.547) was 308.948 RLU and the “RLU, fluorescence trace” value (Time (s) 155.547) was 318.726 RLU. The “RLU, fluorescence trace” value (Time (s) 161.547) was 303.241 RLU, the “RLU, fluorescence trace” value (Time (s) 167.547) was 312.32 RLU and the “RLU, fluorescence trace” value (Time (s) 173.547) was 281.168 RLU. The “RLU, fluorescence trace” value (Time (s) 179.547) was 242.535 RLU, the “RLU, fluorescence trace” value (Time (s) 185.547) was 225.911 RLU and the “RLU, fluorescence trace” value (Time (s) 191.547) was 214.607 RLU. For the same compound, the “RLU, fluorescence trace” value (Time (s) 197.547) was 221.087 RLU, the “RLU, fluorescence trace” value (Time (s) 203.547) was 189.795 RLU and the “RLU, fluorescence trace” value (Time (s) 209.547) was 203.53 RLU. For the same compound, the “RLU, fluorescence trace” value (Time (s) 215.547) was 197.074 RLU, the “RLU, fluorescence trace” value (Time (s) 221.547) was 173.704 RLU and the “RLU, fluorescence trace” value (Time (s) 227.547) was 160.915 RLU. For the same compound, the “RLU, fluorescence trace” value (Time (s) 233.547) was 142.108 RLU, the “RLU, fluorescence trace” value (Time (s) 239.547) was 141.876 RLU and the “RLU, fluorescence trace” value (Time (s) 245.547) was 156.883 RLU. The “RLU, fluorescence trace” value (Time (s) 293.547) was 127.131 RLU, the “RLU, fluorescence trace” value (Time (s) 299.547) was 134.948 RLU and the “RLU, fluorescence trace” value (Time (s) 305.547) was 119.109 RLU. For the same compound, the “RLU, fluorescence trace” value (Time (s) 311.547) was 130.712 RLU, the “RLU, fluorescence trace” value (Time (s) 317.547) was 94.0562 RLU and the “RLU, fluorescence trace” value (Time (s) 323.547) was 123.872 RLU. For the same compound, the “RLU, fluorescence trace” value (Time (s) 329.547) was 117.665 RLU, the “RLU, fluorescence trace” value (Time (s) 335.547) was 137.018 RLU and the “RLU, fluorescence trace” value (Time (s) 341.547) was 127.876 RLU. For the same compound, the “RLU, fluorescence trace” value (Time (s) 347.547) was 133.973 RLU, the “RLU, fluorescence trace” value (Time (s) 353.547) was 116.889 RLU and the “RLU, fluorescence trace” value (Time (s) 359.547) was 102.962 RLU. For the same compound, the “Activation threshold concentration TAS2R4” value (lowest concentration with significantly increased fluorescence vs empty vector (p < 0.01)) was 30 µM.
